# Laboratory results reported in patent publication US10041937B2, “Macrophage identification agent, and identification method, sorting method, evaluation method, screening method and kit using the macrophage identifier agent” (CANON KABUSHIKI KAISHA, priority 2013, dated 2018).
# Experiments:
# [1] = system: M1 macrophages and M2 macrophages differentiated from RAW264.7 cells; assay: Identification of macrophage subtypes differentiated from mouse cell line RAW264.7; format: cell-based; details: RAW264.7 derived M1 and M2
# Description: The subtypes were identified by using the compound (1) in the same manner as in Example 1 except that the macrophage subtypes differentiated from the mouse bone marrow cells were changed to macrophage subtypes differentiated from a cell line established from mouse monocytic leukemia.
# The culture of subtypes was performed with reference to NPL 9. Specifically, RAW264.7 cells purchased from American Type Culture Collection, that is, a cell line established from mouse monocytic leukemia, were subcultured several times, and the resultant cells were dispersed to a concentration of 3.3×10^4/mL in a D-MEM containing 10% FBS, 1% P/S and 1% MEM-NEAA, and 3.3×10^5 cells were seeded in a 100 mm dish. The cells were grown by incubation performed in the presence of 5% CO2 at 37° C. After 2 to 4 days, it was confirmed that an area of about to 70% of the bottom of the dish had been covered by the cells, the medium was then exchanged, and by adding 200 ng of interferon-γ and 1 μg of polyliposaccharide (both manufactured by Pepro Tech) to the medium, the cells were differentiated to the subtype M1. Besides, by adding 100 ng of IL-4, the cells were differentiated to the subtype M2. […]
# A histogram was prepared by plotting fluorescence intensity obtained in the FITC channel on the abscissa and plotting the number of cells at each fluorescence intensity on the ordinate, which is shown in FIG. 9.
# [2] = system: M1 macrophages and M2 macrophages differentiated from mouse bone marrow cells; assay: Subtype identification by staining and flow cytometry of M1 and M2 macrophages differentiated from mouse bone marrow cells; format: cell-based, Balb/c mouse; details: general formula (10) dyes (Table 8)
# Method in brief: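 Balb/c mouse bone marrow cells were differentiated to macrophages with 50 ng/mL M-CSF over two 3–4-day periods, then polarized for 3 days to M1 (interferon-γ plus polyliposaccharide) or M2 (IL-4). Live cells (aqua dye-negative) were analysed by flow cytometry; resolution R = |FM1−FM2|/(WM1+WM2) from histogram peak positions and widths indexed subtype discrimination.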
# [3] = system: M1 macrophages and M2 macrophages differentiated from THP-1 cells; assay: Identification of macrophage subtypes differentiated from human cell line THP-1; format: cell-based; details: THP-1 derived M1 and M2
# Description: The fluorescent signals derived from the compounds (3), (4), (6), (7), (9), (11) to (13), (15), (17), (19) to (26), (28), (30) to (33), (35), (36), (38), (42) to (45), (48) to (62), (65), (67), (74) to (76), (82), (83) and (85) and the comparative compounds (1) and (2) were measured in channels suitable to the respective compounds. Histograms were prepared by plotting fluorescence intensities obtained in the respective channels on the abscissa and plotting the numbers of cells at each fluorescence intensity on the ordinate. A difference between a fluorescence intensity (FM1) at a peak top of the histogram of the M1 macrophage and a fluorescence intensity (FM2) at a peak top of the histogram of the M2 macrophage is divided by a sum of a peak width (WM1) of the histogram of the M1 macrophage and a peak width (WM2) of the histogram of the M2 macrophage, so as to obtain a resolution R, which was used as an index of the identification ability for a subtype (see the following expression (1)). Resolution R=|FM1−FM2|/(WM1+WM2) Expression (1)
# Based on the thus obtained values of the resolution R, the identification abilities for the subtypes of the compounds (3), (4), (6), (7), (9), (11) to (13), (15), (17), (19) to (26), (28), (30) to (33), (35), (36), (38), (42) to (45), (48) to (62), (65), (67), (74) to (76), (82), (83) and (85) and the comparative compounds (1) and (2) were evaluated as any of A to C according to the following criteria, and if the resolution R was 0.15 or more, the compound was determined to be good in the subtype identification.
# The subtypes were identified by using the compound (1) in the same manner as in Example 1 except that the macrophage subtypes differentiated from the mouse bone marrow cells were changed to macrophage subtypes differentiated from a cell line established from human acute monocytic leukemia.
# The culture of subtypes was performed with reference to NPL 10. Specifically, THP-1 cells purchased from JCRB Cell Bank of National Institute of Biomedical Innovation, that is, a cell line established from human acute monocytic leukemia, were subcultured several times, and the resultant cells were dispersed to a concentration of 5.0×10^5/mL in an RPMI1640 containing 10% FBS and 1% P/S, and 5.0×10^6 cells were seeded in a 100 mm dish. The monocytes were differentiated into macrophages by incubating the resultant in the presence of 5% CO2 at 37° C. for 2 days with 500 ng of PMA added thereto. After exchanging the medium, by adding 200 ng of interferon-γ and 1 μg of polyliposaccharide (both manufactured by Pepro Tech) to the medium, the cells were differentiated to the subtype M1. Besides, by adding 200 ng of IL-4 and IL-13, the cells were differentiated to the subtype M2. After incubation performed in the presence of 5% CO2 at 37° C. for 24 hours, the resultant was rinsed with PBS, and PBS containing 0.25% trypsin and 1 mM EDTA (ethylenediaminetetraacetic acid) was used for collecting, from the dish, the macrophages having been differentiated to the subtypes M1 and M2.
# Specifically, fluorescent signals derived from the compounds (1) (3) (4) (12) and (15) were measured by using the channels which are appropriate for each of the compounds and the identification abilities for the subtypes of the compounds were evaluated based on the values of the resolution R.
smiles,measurement,setting,value
CCN(CC)c1ccc2cc(-c3nc4ccccc4s3)c(=O)oc2c1 [compound (129)],subtype more strongly stained,[1],the M1 macrophages were stained more strongly by the compound (129) than the M2 macrophages
same,Resolution ratio R,[2]; M1 vs M2 macrophages from mouse bone marrow cells,0.709
same,Evaluation of macrophage subtype identification,[2]; class based on resolution R,"A (The compound is very good in the subtype identification (namely, the resolution R is 0.5 or more))"
same,Peak position of M1 macrophage,"[2]; mouse bone marrow-derived M1 macrophages, channel listed per compound",31.0
same,Peak position of M2 macrophage,"[2]; mouse bone marrow-derived M2 macrophages, channel listed per compound",13.0
same,subtype more strongly stained,[3],the M1 macrophages were stained more strongly by the compound (129) than the M2 macrophages
